Measurements taken from patent US10597375B2, “Halogen-substituted heterocyclic compound” (UBE INDUSTRIES, LTD., priority 2012, dated 2020).
pIC50: −log10 of the molar value.

Columns and labels:
[1] = system: A2058 human melanoma cells; experiment: Cell migration test (LPA-induced, Chemo-Tx); type: cell-based; details: LPA 100 nM, 3 hours, read-out: IC50: concentration of the test compound which inhibits the cell migration activity of LPA by 50%
Experimental: The cell migration test was carried out using Chemo-Tx (registered trademark) (116-8, Neuro Probe). A2058 human melanoma cells (obtained from European Collection of Cell Culture) were cultured in a serum-free EMEM medium for 24 hours, and then re-suspended in a 0.1% BSA-containing DMEM medium to obtain a cell suspension. The test compound dissolved in DMSO in various concentration was each added to the cell suspension, and the suspension was cultured at 37° C. for 15 minutes (the final DMSO concentration of 0.5%). LPA dissolved in a 0.1% BSA-containing DMEM medium (the final concentration of 100 nM) was added to Chemo-Tx 96 well plate, and a Chemo-Tx filter which had been coated with 0.001% Fibronectin on the both surfaces was put on the plate. The suspension of cultured cells (25,000 cells) was added onto the upper surface of the filter and further cultured at 37° C. for 3 hours, and the cells on the upper surface of the filter were removed. After the filter was removed and dried, the cells which had migrated to the lower surface of the filter were stained using Diff-Quik stain (16920, Sysmex). The absorbance of the filter (570 nm) was measured and the concentration of the test compound which inhibits the cell migration activity of LPA by 50%, (1050) was determined by non-linear regression analysis using EXSAS (version 7.6.0, Arm Systex).

[2] = system: LPA-induced histamine release; experiment: LPA-induced histamine release test in mouse; type: in vivo; details: male CD1 mice; oral dose of 10 mg/kg; LPA 300 μg/mouse via tail vein 4 hours after administration; blood 2 minutes after LPA; read-out: efficacy rate (rate of individuals which showed the inhibition rate of 80% or more of plasma histamine)
Experimental: LPA-Induced Histamine Release Test in Mouse
LPA-induced histamine release test in mouse was carried out according to a method by Swaney et al. (The Journal of Pharmacology and Experimental Therapeutics, 336 (2011), pages 693-700). The test compound was suspended in 0.5% methylcellulose solution (133-14255, Wako), and orally administered to male CD1 mice (body weight: 30 to 40 g, supplied by Charles River Laboratories Japan) at a dose of 10 mL/kg. 4 hours after administration, LPA (857130P, Avanti) dissolved in a 0.1% BSA-containing PBS was administered via the tail vein (300 μg/mouse). Immediately, the mouse was anesthetized with isoflurane, and blood was collected via a vein 2 minutes after the administration of LPA. The blood was put into a test tube containing EDTA, and centrifuged at 4° C., 2,000×g, for 10 minutes to obtain the plasma.
The histamine concentration in the plasma was measured by EIA kit (62HTMPEB, Cisbio Bioassays).

SMILES | pIC50 [1] | responders at 10 mg/kg [2]
CC(OC(=O)Nc1cc(F)sc1-c1ccc(-c2ccc(C3(C(=O)O)CC3)cc2)cc1)c1ccsc1 (racemic) [I-639, (RS)-1-{4′-[5-Fluoro-3-({[1-(thiophen-3-yl)ethoxy]carbonyl}amino)thiophen-2-yl]-[1,1′-biphenyl]-4-yl}cyclopropanecarboxylic acid] | ≥ 6.70 | ≥ 50%
Cc1cscc1C(C)OC(=O)Nc1cc(F)sc1-c1ccc(-c2ccc(C3(C(=O)O)CC3)cc2)cc1 (racemic) [I-649, (RS)-1-{4′-[5-Fluoro-3-({[1-(4-methylthiophen-3-yl)ethoxy]carbonyl}amino)thiophen-2-yl]-[1,1′-biphenyl]-4-yl}cyclopropanecarboxylic acid] | ≥ 6.70 | ≥ 50%
CC(OC(=O)Nc1cc(F)sc1-c1ccc(-c2ccc(C3(C(=O)O)CC3)cc2)cc1)c1cscc1Cl (racemic) [I-657, (RS)-1-{4′-[3-({[1-(4-Chlorothiophen-3-yl)ethoxy]carbonyl}amino)-5-fluorothiophen-2-yl]-[1,1′-biphenyl]-4-yl}cyclopropanecarboxylic acid] | ≥ 6.70 | ≥ 50%
COc1cc(-c2sc(F)cc2NC(=O)OC(C)c2ccsc2)ccc1-c1ccc(C2(C(=O)O)CC2)cc1 (racemic) [I-811, (RS)-1-{4′-[5-Fluoro-3-({[1-(thiophen-3-yl)ethoxy]carbonyl}amino)thiophen-2-yl]-2′-methoxy-[1,1′-biphenyl]-4-yl}cyclopropanecarboxylic acid] | ≥ 6.70 | ≥ 50%
C[C@@H](OC(=O)Nc1cc(Cl)sc1-c1ccc(-c2ccc(C3(C(=O)O)CC3)cc2)cc1)c1ccc(F)cc1F [I-64, (R)-1-{4′-[5-Chloro-3-({[1-(2,4-difluorophenyl)ethoxy]carbonyl}amino)thiophen-2-yl]-[1,1′-biphenyl]-4-yl}cyclopropanecarboxylic acid] | ≥ 6.70 | ≥ 50%
C[C@@H](OC(=O)Nc1cc(Cl)sc1-c1ccc(-c2ccc(C3(C(=O)O)CC3)cc2)cc1)c1cc(F)ccc1F [I-68, (R)-1-{4′-[5-Chloro-3-({[1-(2,5-difluorophenyl)ethoxy]carbonyl}amino)thiophen-2-yl]-[1,1′-biphenyl]-4-yl}cyclopropanecarboxylic acid] | ≥ 6.70 | ≥ 50%
Cc1ccccc1[C@@H](C)OC(=O)Nc1cc(F)sc1-c1ccc(-c2ccc(C3(C(=O)O)CC3)cc2)cc1 [I-136, (R)-1-{4′-[5-Fluoro-3-({[1-(o-tolyl)ethoxy]carbonyl}amino)thiophen-2-yl]-[1,1′-biphenyl]-4-yl}cyclopropanecarboxylic acid] | ≥ 6.70 | ≥ 50%
C[C@@H](OC(=O)Nc1cc(Cl)sc1-c1ccc(-c2ccc(C3(C(=O)O)CC3)cc2)nc1)c1ccccc1 [I-196, (R)-1-{4-[5(5-Chloro-3-{[(1-phenylethoxy)carbonyl]amino}thiophen-2-yl)pyridine-2-yl]phenyl}cyclopropanecarboxylic acid] | ≥ 6.70 | ≥ 50%
COc1cc(-c2sc(Cl)cc2NC(=O)O[C@H](C)c2ccccc2)ccc1-c1ccc(C2(C(=O)O)CC2)cc1 [I-350, (R)-1-[4′-(5-Chloro-3-{[(1-phenylethoxy)carbonyl]amino}thiophen-2-yl)-2′-methoxy-[1,1′-biphenyl]-4-yl]cyclopropanecarboxylic acid] | ≥ 6.70 | ≥ 50%
COc1cc(-c2sc(Cl)cc2NC(=O)O[C@H](C)c2ccccc2F)ccc1-c1ccc(C2(C(=O)O)CC2)cc1 [I-354, (R)-1-{4′-[5-Chloro-3-({[1-(2-fluorophenyl)ethoxy]carbonyl}amino)thiophen-2-yl]-2′-methoxy-[1,1′-biphenyl]-4-yl}cyclopropanecarboxylic acid] | ≥ 6.70 | ≥ 50%
COc1cc(-c2sc(Cl)cc2NC(=O)O[C@H](C)c2cccc(F)c2)ccc1-c1ccc(C2(C(=O)O)CC2)cc1 [I-358, (R)-1-{4′-[5-Chloro-3-({[1-(3-fluorophenyl)ethoxy]carbonyl}amino)thiophen-2-yl]-2′-methoxy-[1,1′-biphenyl]-4-yl}cyclopropanecarboxylic acid] | ≥ 6.70 | ≥ 50%
COc1cc(-c2sc(Cl)cc2NC(=O)O[C@H](C)c2ccc(F)cc2)ccc1-c1ccc(C2(C(=O)O)CC2)cc1 [I-362, (R)-1-{4′-[5-Chloro-3-({[1-(4-fluorophenyl)ethoxy]carbonyl}amino)thiophen-2-yl]-2′-methoxy-[1,1′-biphenyl]-4-yl}cyclopropanecarboxylic acid] | ≥ 6.70 | ≥ 50%
COc1cc(-c2sc(Cl)cc2NC(=O)O[C@H](C)c2ccccc2Cl)ccc1-c1ccc(C2(C(=O)O)CC2)cc1 [I-366, (R)-1-{4′-[5-Chloro-3-({[1-(2-chlorophenyl)ethoxy]carbonyl}amino)thiophen-2-yl]-2′-methoxy-[1,1′-biphenyl]-4-yl}cyclopropanecarboxylic acid] | ≥ 6.70 | ≥ 50%
COc1cc(-c2sc(Cl)cc2NC(=O)O[C@H](C)c2ccc(Cl)cc2)ccc1-c1ccc(C2(C(=O)O)CC2)cc1 [I-370, (R)-1-{4′-[5-Chloro-3-({[1-(4-chlorophenyl)ethoxy]carbonyl}amino)thiophen-2-yl]-2′-methoxy-[1,1′-biphenyl]-4-yl}cyclopropanecarboxylic acid] | ≥ 6.70 | ≥ 50%
COc1cc(-c2sc(Cl)cc2NC(=O)O[C@H](C)c2ccccc2C)ccc1-c1ccc(C2(C(=O)O)CC2)cc1 [I-374, (R)-1-{4′-[5-Chloro-3-({[1-(o-tolyl)ethoxy]carbonyl}amino)thiophen-2-yl]-2′-methoxy-[1,1′-biphenyl]-4-yl}cyclopropanecarboxylic acid] | ≥ 6.70 | ≥ 50%
COc1cc(-c2sc(Cl)cc2NC(=O)O[C@H](C)c2ccc(F)cc2F)ccc1-c1ccc(C2(C(=O)O)CC2)cc1 [I-378, (R)-1-{4′-[5-Chloro-3-({[1-(2,4-difluorophenyl)ethoxy]carbonyl}amino)thiophen-2-yl]-2′-methoxy-[1,1′-biphenyl]-4-yl}cyclopropanecarboxylic acid] | ≥ 6.70 | ≥ 50%
COc1cc(-c2sc(Cl)cc2NC(=O)O[C@H](C)c2cc(F)ccc2F)ccc1-c1ccc(C2(C(=O)O)CC2)cc1 [I-388, (R)-1-{4′-[5-Chloro-3-({[1-(2,5-difluorophenyl)ethoxy]carbonyl}amino)thiophen-2-yl]-2′-methoxy-[1,1′-biphenyl]-4-yl}cyclopropanecarboxylic acid] | ≥ 6.70 | ≥ 50%
COc1cc(-c2sc(F)cc2NC(=O)O[C@H](C)c2ccccc2)ccc1-c1ccc(C2(C(=O)O)CC2)cc1 [I-420] | ≥ 6.70 | ≥ 50%
COc1cc(-c2sc(F)cc2NC(=O)O[C@H](C)c2cccs2)ccc1-c1ccc(C2(C(=O)O)CC2)cc1 [I-840, (R)-1-{4′-[5-Fluoro-3-({[1-(thiophen-2-yl)ethoxy]carbonyl}amino)thiophen-2-yl]-2′-methoxy-[1,1′-biphenyl]-4-yl}cyclopropanecarboxylic acid] | ≥ 6.70 | 
